Test results as given in PMC7496730, “Peptide-PAINT Super-Resolution Imaging Using Transient Coiled Coil Interactions” (Nano Letters, 2020).
Residues, ends and D or L forms follow the SMILES beside them.

Target: E3 peptide (21 amino acid)
Assay: E/K coiled coil stability (length dependence, Figure S1), E3/K3 complex
Format: binding
Conditions: 21 aa long E3 and K3 peptides
Experimental: The PAINT process requires a dynamic equilibrium between bound and unbound states of the fluorescently labeled imager probe. In DNA-PAINT, this is achieved when the transiently formed duplexes have stabilities in the micromolar range (KD ≈ 1 μM). The interaction between the 21 amino acid (aa) long E3 and K3 peptides previously used for protein imaging[20]−[23] leads to a coiled coil complex with nanomolar stability (KD ≈ 20 nM, Figure S1). Aiming for the identification of a suitable weaker affinity, we investigated the length dependence of coiled coil stability (Figure S1).

Kd: ~20 nM
SMILES: CC[C@H](C)[C@H](NC(=O)[C@H](CCCCN)NC(C)=O)C(=O)N[C@@H](C)C(=O)N[C@@H](C)C(=O)N[C@@H](CC(C)C)C(=O)N[C@@H](CCCCN)C(=O)N[C@@H](CCC(=O)O)C(=O)N[C@@H](CCCCN)C(=O)N[C@H](C(=O)N[C@@H](C)C(=O)N[C@@H](C)C(=O)N[C@@H](CC(C)C)C(=O)N[C@@H](CCCCN)C(=O)N[C@@H](CCC(=O)O)C(=O)N[C@@H](CCCCN)C(=O)N[C@H](C(=O)N[C@@H](C)C(=O)N[C@@H](C)C(=O)N[C@@H](CC(C)C)C(=O)N[C@@H](CCCCN)C(=O)N[C@@H](CCC(=O)O)C(N)=O)[C@@H](C)CC)[C@@H](C)CC [K3] (Ac-KIAALKEKIAALKEKIAALKE-NH2)
